Source: patent US20120107331A1, “GEMM RIBOSWITCHES, STRUCTURE-BASED COMPOUND DESIGN WITH GEMM RIBOSWITCHES, AND METHODS AND COMPOSITIONS FOR USE OF AND WITH GEMM RIBOSWITCHES” (YALE UNIVERSITY, priority 2009, published 2012)

Legend:
[1] = test system: GEMM riboswitch C92U mutant (WT-110 background); experiment: Gel-shift Kd measurement, C92U mutant RNA; type: binding, Vibrio cholerae; conditions: for binding (in words): C92U RNA; for binding (in words) / Kd: gel-shift; for Kd: RNA C92U, dash = no binding
Text: (§1) Point mutants were cloned using the Quik Change protocol. Radiolabeled c-di-GMP was obtained enzymatically according to published procedures and purified by polyacrylamide gel electrophoresis (PAGE) (Paul, R. et al. Cell cycle-dependent dynamic localization of a bacterial response regulator with a novel di-guanylate cyclase output domain. Genes & Development 18, 715-27 (2004); Christen, M., Christen, B., Folcher, M., Schauerte, A. & Jenal, U. Identification and characterization of a cyclic di-GMP-specific phosphodiesterase and its allosteric control by GTP. J Biol Chem 280, 30829-37 (2005)). A constitutively active DGC, PleD* was expressed and purified as described and the reaction was initiated using [α-^32P]GTP as the substrate (Paul, R. et al. Cell cycle-dependent dynamic localization of a bacterial response regulator with a novel di-guanylate cyclase output domain. Genes & Development 18, 715-27 (2004)). A single band appeared as the reaction proceeded that ran slower than the starting material when purified by PAGE. Radiolabeled c-diAMP was obtained similarly, using the protein DisA and [α-^32P]ATP as the substrate. Riboswitch RNAs were folded in the presence of radiolabeled c-di-GMP or c-diAMP and folding buffer. The complex was allowed to equilibrate for 1 hour and bound and free c-di-GMP were separated by native (100 mM Tris/HEPES pH 7.5, 10 mM MgCl2, 0.1 mM EDTA) PAGE at 4° C. A STORM phosphorimager was used to scan gels and the bands were quantitated using ImageQuant. Fraction bound was graphed versus RNA concentration and fit using KaleidaGraph to obtain Kds according to the equation:
(§2) F=fraction bound; F∞=fraction bound at saturation; C=riboswitch concentration
(§3) A gel-shift assay, which directly measures c-di-GMP binding to the GEMM RNA (FIG. 3A, B), was developed in order to test biochemical predictions resulting from the GEMM riboswitch structure. Specifically, radiolabeled c-di-GMP was incubated with the riboswitch and the RNA bound ligand was separated from the free on a native polyacrylamide gel.
(§4) The three nucleotides directly involved in ligand recognition (G20, A47 and C92) were mutated and affinity for c-di-GMP was measured by gel shift analysis in the context of the WT-110 nucleotide background (Table 1) (Sudarsan, N. et al. Riboswitches in eubacteria sense the second messenger cyclic di-GMP. Science 321, 411-3). Mutational analysis supports the crystallographically observed base pair between a conserved cytidine, C92, and c-di-GMP. […] By mutating it to an A or G, this ability to base pair with the ligand is lost. The large effect that these mutations have on ligand binding confirms that C92 is making an important contact with Gβ. The minor affect seen upon mutation to a U is in a reasonable range given the potential to form a wobble pair with Gβ. A natural GEMM sequence has been identified that lacks a C at position 92, but instead has a C at position 93. This RNA can bind c-di-GMP with an affinity of approximately 1 uM.

[2] = test system: GEMM riboswitch Vc2 110 (WT-110); experiment: Gel-shift Kd measurement, WT-110 RNA; type: binding, Vibrio cholerae; conditions: for binding (in words) / Kd: gel-shift; for Kd: radiolabeled ligand, RNA WT-110, dash = no binding
Text: as §1, §2, §3
This assay was used to measure a binding constant for the crystallized RNA and also to verify that this method gave the Kd measurements similar to what had been fond using in-line probing. To validate the method, Vc2 110 was used and found to have a Kd of ˜7 nM. This value agrees well with affinities obtained previously by in-line probing for this same sequence (Sudarsan, N. et al. Riboswitches in eubacteria sense the second messenger cyclic di-GMP. Science 321, 411-3). A RNA corresponding to the crystallization construct with no U1A binding loop (Vc2 91) was then tested. […] The RNA used in the crystallographic studies (Vc2 91 with a U1A binding loop) bound with a Kd slightly weaker than wild-type, but is within 9-fold of the original value.

[3] = test system: GEMM riboswitch C92U, G20A mutant; experiment: Gel-shift Kd measurement, C92U, G20A double mutant RNA; type: binding, Vibrio cholerae; conditions: for Kd: gel-shift, RNA C92U, G20A, dash = no binding
Text: as §1, §2
as §3, with “gel. […]” for “gel.”

[4] = test system: GEMM riboswitch A47G mutant (WT-110 background); experiment: Gel-shift Kd measurement, A47G mutant RNA; type: binding, Vibrio cholerae; conditions: for Kd: gel-shift, RNA A47G, dash = no binding
Text: as §1, §2, §3
as §4, with “A natural GEMM sequence has been identified that lacks a C at position 92, but instead has a C at position 93. This RNA can bind c-di-GMP with an affinity of approximately 1 uM.” left out

[5] = test system: GEMM riboswitch C92 to A mutant (WT-110 background); experiment: Gel-shift affinity measurement, C92A mutant RNA; type: binding, Vibrio cholerae
Text: (§5) Point mutants were cloned using the Quik Change protocol. Radiolabeled c-di-GMP was obtained enzymatically according to published procedures and purified by polyacrylamide gel electrophoresis (PAGE) (Paul, R. et al. Cell cycle-dependent dynamic localization of a bacterial response regulator with a novel di-guanylate cyclase output domain. Genes & Development 18, 715-27 (2004); Christen, M., Christen, B., Folcher, M., Schauerte, A. & Jenal, U. Identification and characterization of a cyclic di-GMP-specific phosphodiesterase and its allosteric control by GTP. J Biol Chem 280, 30829-37 (2005)). A constitutively active DGC, PleD* was expressed and purified as described and the reaction was initiated using [α-^32P]GTP as the substrate (Paul, R. et al. Cell cycle-dependent dynamic localization of a bacterial response regulator with a novel di-guanylate cyclase output domain. Genes & Development 18, 715-27 (2004)). […] A STORM phosphorimager was used to scan gels and the bands were quantitated using ImageQuant. […]
(§6) The three nucleotides directly involved in ligand recognition (G20, A47 and C92) were mutated and affinity for c-di-GMP was measured by gel shift analysis in the context of the WT-110 nucleotide background (Table 1) (Sudarsan, N. et al. Riboswitches in eubacteria sense the second messenger cyclic di-GMP. Science 321, 411-3). […]

[6] = target: GEMM riboswitch Vc2 91 with a U1A binding loop (WT-U1A); experiment: Gel-shift Kd measurement, WT-U1A RNA (Vc2 91 with a U1A binding loop); parameters: species or system Vibrio cholerae
Text: as §5, with “(2004)). A single band appeared as the reaction proceeded that ran slower than the starting material when purified by PAGE. Radiolabeled c-diAMP was obtained similarly, using the protein DisA and [α-^32P]ATP as the substrate. Riboswitch RNAs were folded in the presence of radiolabeled c-di-GMP or c-diAMP and folding buffer.” for “(2004)).”

[7] = test system: GEMM riboswitch G20U mutant (WT-110 background); experiment: Gel-shift Kd measurement, G20U mutant RNA; type: binding, Vibrio cholerae
Text: as §5, §6

[8] = test system: natural GEMM sequence lacking C at position 92, C at position 93 mutated to an A; experiment: Binding of c-di-GMP to natural GEMM sequence with C93 mutated to A
Method: as §4

[9] = target: natural GEMM sequence that lacks a C at position 92 but has a C at position 93; experiment: Binding of c-di-GMP to natural GEMM sequence with C at position 93; conditions: read-out: affinity
Method: as §4

[10] = test system: GEMM riboswitch C92 to G mutant (WT-110 background); experiment: Gel-shift affinity measurement, C92G mutant RNA; type: binding, Vibrio cholerae
Text: as §5, §6

[11] = test system: GEMM riboswitch A47C mutant (WT-110 background); experiment: Gel-shift Kd measurement, A47C mutant RNA; type: binding, Vibrio cholerae
Text: as §5, §6

[12] = test system: GEMM riboswitch A47U mutant (WT-110 background); experiment: Gel-shift Kd measurement, A47U mutant RNA; type: binding, Vibrio cholerae
Text: as §5, §6

[13] = test system: GEMM riboswitch G20A mutant (WT-110 background); experiment: Gel-shift Kd measurement, G20A mutant RNA; type: binding, Vibrio cholerae
Text: as §5, §6

GEMM riboswitch = conditions: Sudarsan et al. 2008; read-out: affinity; cited from earlier work
[14] = target: known c-di-GMP binding proteins; conditions: range from 50 nM to several micromolar; Hengge 2009; read-out: binding affinity; cited from earlier work
[15] = target: GEMM riboswitch Vc2 91 (WT-91); experiment: Gel-shift Kd measurement, WT-91 RNA (crystallization construct with no U1A binding loop); parameters: species or system Vibrio cholerae; conditions: radiolabeled ligand, RNA WT-91, dash = no binding seen
Text: as §5, with “(2004)). A single band appeared as the reaction proceeded that ran slower than the starting material when purified by PAGE. Radiolabeled c-diAMP was obtained similarly, using the protein DisA and [α-^32P]ATP as the substrate. Riboswitch RNAs were folded in the presence of radiolabeled c-di-GMP or c-diAMP and folding buffer.” for “(2004)).”

[16] = test system: GEMM riboswitch G20C mutant (WT-110 background); experiment: Gel-shift Kd measurement, G20C mutant RNA; type: binding, Vibrio cholerae
Text: as §1
F=fraction bound; F∞=fraction bound at saturation; C=riboswitch concentration […]
as §6

Nc1nc2c(ncn2[C@@H]2O[C@H](COP(=O)(O)O)[C@@H](OP(=O)(O)OC[C@H]3O[C@@H](n4cnc5c(N)ncnc54)[C@H](O)[C@@H]3O)[C@H]2O)c(=O)[nH]1 [pGpA]
affinity lower than that of the wild-type RNA for pGpG ([1]; C92U RNA with pGpA vs wild-type RNA with pGpG): approximately 27 fold | binding (in words) [1]: binding was observed | Kd [1]: 16 ± 5.2 µM | binding (in words) ([2]; wild-type sequence): not

Nc1ncnc2c1ncn2[C@@H]1O[C@@H]2COP(=O)(O)O[C@H]3[C@@H](O)[C@H](n4cnc5c(N)ncnc54)O[C@@H]3COP(=O)(O)O[C@H]2[C@H]1O [c-di-AMP, cyclic diadenosine monophosphate]
bound c-di-AMP better than c-di-GMP ([3]; C92U/G20A double mutant): approximately 6 fold | Kd [3]: 0.54 ± 0.029 µM

Nc1nc2c(ncn2[C@@H]2O[C@H](COP(=O)(O)O[C@H]3[C@@H](O)[C@H](n4cnc5c(=O)[nH]c(N)nc54)O[C@@H]3COP(=O)(O)O)[C@@H](O)[C@H]2O)c(=O)[nH]1 [pGpG]
binding (in words) [1]: does not bind | Kd [2]: 0.49 ± 0.15 µM | binding (in words) ([2]; wild-type sequence): binds | affinity lower than that of the cyclic ligand ([2]; wild-type sequence, pGpG vs c-di-GMP): approximately 66 fold | binds the linear form better than c-di-GMP ([4]; A47G, pGpG vs c-di-GMP): 3 fold | Kd [4]: 1.4 ± 0.12 µM

Nc1nc2c(ncn2[C@@H]2O[C@H](COP(=O)(O)O[C@H]3[C@@H](O)[C@H](n4cnc5c(N)ncnc54)O[C@@H]3COP(=O)(O)O)[C@@H](O)[C@H]2O)c(=O)[nH]1 [pApG]
binding (in words) [1]: does not bind

Nc1nc2c(ncn2[C@@H]2O[C@@H]3COP(=O)(O)O[C@H]4[C@@H](O)[C@H](n5cnc6c(=O)[nH]c(N)nc65)O[C@@H]4COP(=O)(O)O[C@H]3[C@H]2O)c(=O)[nH]1 [c-di-GMP, cyclic diguanosine monophosphate]
effect of mutation on affinity (in words) [5]: reduces affinity for c-di-GMP substantially | loss in affinity ([1]; C92U vs wild-type, c-di-GMP): 6 fold | Kd [1]: 0.043 ± 0.019 µM | Kd [2]: 0.0074 ± 0.0024 µM | Kd weaker than wild-type ([6]; Vc2 91 with U1A binding loop vs original value): ≤ 9 fold | Kd ([6]; gel-shift, radiolabeled ligand, RNA WT-U1A, dash = no binding seen): 0.055 ± 0.014 µM | Kd [3]: 3.2 ± 0.6 µM | loss in affinity ([7]; G20U vs wild-type): approximately 45 fold | Kd ([7]; gel-shift, RNA G20U, dash = no binding): 0.33 ± 0.15 µM | affinity (in words) [8]: all affinity for c-di-GMP is lost | Kd [9]: ~1 µM | effect of mutation on affinity (in words) [10]: reduces affinity for c-di-GMP substantially | decrease in binding affinity ([11]; A47 mutated to C vs wild-type): approximately 1000 fold | Kd ([11]; gel-shift, RNA A47C, dash = no binding): 8.5 ± 3 µM | decrease in binding affinity ([12]; A47 mutated to U vs wild-type): approximately 1000 fold | Kd ([12]; gel-shift, RNA A47U, dash = no binding): 3.5 ± 0.52 µM | effect of mutation on affinity (in words) ([13]; G20 to A): maintains approximately wild-type affinity | Kd ([13]; gel-shift, RNA G20A, dash = no binding): 0.0047 ± 0.0013 µM | decrease in binding affinity ([4]; A47 mutated to G vs wild-type): approximately 1000 fold | Kd [4]: 4.2 ± 1.7 µM | Kd (GEMM riboswitch): ~0.001 µM | Kd [14]: ≥ 0.05 µM | Kd [15]: 0.0064 ± 0.0028 µM | reduction in affinity ([16]; G20C vs wild-type): 2 fold | effect of mutation on affinity (in words) ([16]; G20 to C): maintains approximately wild-type affinity | Kd ([16]; gel-shift, RNA G20C, dash = no binding): 0.013 ± 0.0012 µM
